Key:
in vivo = settings: male, rat, po, 6 mg/kg
Description: (§1) 16 healthy male rats weighing 200˜220 g were randomly divided into four groups. […] The plasma was separated, preserved for test under −20° C. The blood concentration was tested by HPLC-Tandem Mass Spectrum.

[1] = Stability of compound A and its salts, content by HPLC; assay type: physicochemical; settings: for Content by HPLC after storage: raw material purity 98.6%
Description: (1) Content Determination Method
With a Octadecyl silane chemically bonded silica as bulking agent and 0.1% aqueous solution of ammonia-acetonitrile (65:35) as mobile phase, eluted in gradient mode at detection wavelength of 230 nm. Appropriate amount of test sample and reference solution was taken, then water was added to dissolve which to form solutions every 1 ml containing 0.2 mg of them respectively. The test sample solution and reference solution 10 μl was respectively taken and injected into the liquid chromatograph. chromatograph chart was recorded, and calculated by peak area according to the external standard method.
The stability of different types of the pharmaceutically acceptable salts of compound A under different conditions

[2] = tested on: genetic obese Wistar rats with diabetes; experiment: Effects of the 6 salts in genetic obese Wistar rats with diabetes (14 days); assay type: in vivo, rat; settings: for Hemoglobin (hemoglobin A1) / Plasma glucose: male Wistar fat rats, 10 mg/kg/day p.o. in feed, mean ± SD, n=5-6
Description: 14 to 19 week-old male Wistar fat rats were divided into five groups, each to group 5 to 6, and they were respectively administered the 6 salts of compound A (each 10 mg/kg weight/day, p.o.) which were mixed in commercial feed at a ratio of […] for 14 days. The blood was taken from tail vein, a commercial kits (NC-ROPET, Nippon Chemiphar CO.) was used to measure plasma glucose and hemoglobin A1 by enzymatic is method. The results were expressed as mean value of each group (n=5-6)±standard deviation and analyzed by Dunnett's test which were shown in table 2. A significance level of 1% was used.

[3] = Absorption tests in rats of different salts (pharmacokinetics); settings: rat, 6.0 mg/kg (by base) by gavage; for t1/2: 0.5% CMC-Na suspension
Description: as §1

[4] = tested on: genetic obese Wistar rats with diabetes; experiment: Oral glucose tolerance test in genetic obese Wistar rats with diabetes; assay type: in vivo, rat; settings: for Plasma glucose: 30 mg/kg/day p.o. for 7 days, mean ± SD
Description: 13˜14 week-old male fat rats were divided into five groups, each group five. They were respectively administered the 6 salts of compound A (each 30 mg/kg/day, p.o.) for 7 days. After overnight fasting, oral glucose tolerance tests were conducted immidiately (2 g glucose/kg/5 ml, p.o.). Before and 120 and 240 mins after the glucose tolerance test, blood was collected from the tail vein, and plasma glucose was analyzed by enzymatic method (Encore Chemical System; Baker). Results were expressed as mean value of each group (n=5-6)±standard deviation analyzed by Dunnett's test which were shown in table 3.

[5] = 0 min (before glucose load 2 g/kg p.o.)
[6] = 120 min after glucose load 2 g/kg p.o.
[7] = 240 min after glucose load 2 g/kg p.o.

Row | Compound | Content by HPLC after storage ([1]; 40° C., 10 days) [%] | Content by HPLC after storage ([1]; 60° C., 10 days) [%] | Content by HPLC after storage ([1]; Light, 10 days) [%] | Content by HPLC after storage ([1]; RH60%, 25° C., nine months) [%] | Content by HPLC after storage ([1]; RH75%, 40° C., six months) [%] | Hemoglobin (hemoglobin A1) [2] | Plasma glucose [2] | AUC0-t [3] [ng·h/mL] | AUC0-∞ [3] [ng·h/mL] | CL/F [3] [mL/min/kg] | Cmax [3] [ng/mL] | MRT [3] [h] | Tmax [3] [h] | t1/2 [3] [h] | Plasma glucose [4, 5] [mg/dL] | Plasma glucose [4, 6] [mg/dL] | Plasma glucose [4, 7] [mg/dL] | also measured
1 | COC(=O)c1nc(C(F)(F)F)n2c1CN(C(=O)C[C@H](N)Cc1cc(F)c(F)cc1F)CC2 [Compound A, (R)-7-[3-amino-4-(2,4,5-trifluoro-phenyl)-butyryl]-3-trifluoromethyl-5,6,7,8-tetrahydro-imidazo[1,5-a]pyrazine-1-carboxylic acid methyl ester] | 95.2 | 95.7 | 95.2 | 93.3 | 92.2 | – | – | – | – | – | – | – | – | – | – | – | – | AUC0-t (in vivo): 409 ng·h/mL; AUC(0-inf) (in vivo): 425 ng·h/mL; CL/F (in vivo): 545 mL/min/kg; Cmax (in vivo): 242 ng/mL; MRT (in vivo): 1.96 h; Tmax (in vivo): 0.5 h; half-life (in vivo): 1.54 h
2 | COC(=O)c1nc(C(F)(F)F)n2c1CN(C(=O)C[C@H](N)Cc1cc(F)c(F)cc1F)CC2.Cl [Hydrochloride of compound A, hydrochloride of (R)-7-[3-amino-4-(2,4,5-trifluoro-phenyl)-butyryl]-3-trifluoromethyl-5,6,7,8-tetrahydro-imidazo[1,5-a]pyrazine-1-carboxylic acid methyl ester] | 98.7 | 98.2 | 98.1 | 97.5 | 97.7 | 4.5 ± 0.5 | 165 ± 13 | 317 | 319 | 348 | 148 | 1.86 | 0.63 | 1.07 | 109 ± 5 | 116 ± 7 | 106 ± 3 | Effect on blood glucose and hemoglobin in words ([2]; Wistar fat rats, 10 mg/kg/day): reduce the concentration of blood glucose and hemoglobin obviously; Stability test result in words ([1]; conclusion over all storage conditions): most satisfying; Effect on increase of blood sugar after the glucose tolerance test in words ([4]; 30 mg/kg/day p.o., 7 days): significantly inhibited the increase of blood sugar
3 | COC(=O)c1nc(C(F)(F)F)n2c1CN(C(=O)CC(N)Cc1cc(F)c(F)cc1F)CC2.CS(=O)(=O)O (stereo not shown) [Mesylate of compound A] | 96.7 | 96.5 | 97.6 | 95.6 | 95.4 | 5.8 ± 0.4 | 287 ± 34 | 274 | 275 | 397 | 133 | 1.61 | 0.88 | 0.87 | 108 ± 8 | 115 ± 9 | 92 ± 7 | –
